Experimental data taken from patent publication US5438073A, “Dermatological and/or cosmetological composition containing retinoids” (Pierre Fabre Cosmetique, priority 1991, dated 1995).
Where two headings read alike, the source gives them in different places.

What was measured:
[1] = system: cytosol extracts of human keratinocytes; settings: human epidermal cells; specific inhibitors of alcohol metabolism or excess of ethanol
Procedure: We have measured the conversion of retinol to retinoic acid. We have also measured the enzymatic oxidation-reduction of retinal in human epidermal cell extracts in vitro (HPLC analysis of the products obtained by incubation of cytosol extracts with ^3 H-labeled RAL and ROL).
(§1) The HPLC analyses of the retinoids are carried out by the following technique:
(§2) A 100 μl aliquot of the cytosol fraction of keratinocytes is incubated with 600 μM (^3 H) retinol or (^3 H) retinal for 1 hour.
(§3) 5 μl of internal standard solution containing 4-oxoretinoic acid, all-trans-retinoic acid, 13-cis-retinoic acid, retinol and retinal are subsequently added to the reaction medium.
(§4) The radioactive material is then extracted with 3×1 ml of hexane.
(§5) The organic phase is collected and completely evaporated using a stream of nitrogen gas.
(§6) The residue is subsequently taken up in 50 μl of acetonitrile and analysed on an HPLC column.
(§7) The HPLC system consists of a VARIAN 5000 apparatus equipped with an ODS-Ultrasyl reverse-phase column (10 μm, 25×0.4 cm).
(§8) The unlabeled retinoids are detected by their absorbance measured at 340 nm. 600 μl fractions are also collected using a fraction collector, and their radio-activity is measured with a scintillation counter after adding 4 ml of Pico-fluor.

normal human skin [2] = system: normal human skin
Excerpt: This test, carried out on 30 healthy volunteers, was intended to evaluate the existance of a biological effect and the tolerance after topical application of retinal.
Three concentrations, 1.0%, 0.1% and 0.05%, were used, in daily covered applications for at least 15 days and up to 3 months in 10 subjects.

[3] = system: extracts of normal human skin and of the psoriasis plaque
Procedure: (§9) We have also measured the enzymatic oxidation-reduction of retinal in human epidermal cell extracts in vitro (HPLC analysis of the products obtained by incubation of cytosol extracts with ^3 H-labeled RAL and ROL).
as §1, §2, §3, §4, §5, §6, §7
(§10) The isocratic elution system consists of a mixture of solvents composed of 71% acetonitrile, 23% of ammonium acetate buffer (50 mM, pH 7) and 6% tetrahydrofuran, with a flow rate of 2.4 ml/min.
as §8

psoriasis plaques = settings: for regression of the lesion score: with occlusion
Procedure: For this reason, the 1% preparation was used and the effects of a daily application were compared with those of the excipient, in 12 patients.
The application was "open" in 6 cases, and with occlusion in six 6. 11 cases were able to be evaluated (5 with occlusion, 6 open). The effect was measured by standard methods (erythema 0-3, squama 0-3, infiltration 0-3), comparing the plaques treated with retinal with the symmetrical plaques treated with the excipients. Photographs were taken at each inspection.

[4] = system: human epidermal cell extracts
Procedure: as §9, §1, §2, §3, §4, §5, §6, §7, §10, §8

seborrheic dermatitis = experiment: application in the case of seborrheic dermatitis; format: in vivo, human; settings: 0.05% retinal, topical, daily; after treatment for one month
Procedure: This test was carried out on 10 subjects displaying the clinical signs of seborrheic dermatitis.
A topical application containing 0.05% of retinal was used in daily application for one month.

rosacea = experiment: application in the case of rosacea; format: in vivo, human; settings: 0.1% retinal, topical, daily
Procedure: This test was carried out on 10 subjects displaying the clinical signs of rosacea. A topical application containing 0.1% of retinal was used in daily application for 3 months.

normal human skin [5] = settings: topically applied; cited from earlier work
[6] = system: protein extract of psoriasis plaques / cytosol extracts of normal human skin; format: in vitro ADME
Excerpt: Furthermore, the Applicant has shown that the protein extract of psoriasis plaques was also capable of converting retinol to retinoic acid, but with a lower activity (0.33+0.07 pmol/h/mg) than differentiated keratinocytes.
These differences in the conversion activity may be attributed to the differences in biological activity of the tissues studied or to their different state of differentiation.

SMILES: Cc1cn[nH]c1 [4-methylpyrazole]
- effect on the production of retinoic acid from retinol [1]: not affected

SMILES: CCN(CC)C(=S)SSC(=S)N(CC)CC [disulfiram]
- effect on the production of retinoic acid from retinol [1]: not affected

SMILES: CCO [ethanol]
- effect on the production of retinoic acid from retinol [1]: not affected

SMILES: CC1=C(/C=C/C(C)=C/C=C/C(C)=C/C=O)C(C)(C)CCC1 [retinal]
- biological effect on normal skin (normal human skin [2]; 0.1% and 0.05% preparations, topical, healthy volunteers): better appearance of the skin
- cases in which an irritation arose (normal human skin [2]; in vivo): 10%
- irritation / dermatitis caused by the retinoids (normal human skin [2]; in vivo): no irritation was noted
- skin coloration induced (normal human skin [2]; in vivo): yellowish coloration
- tolerability (normal human skin [2]; in vivo): excellent
- oxidation of retinal to retinoic acid [3]: 1.35 ± 0.4 pmol/h/mg
- effect on psoriasis plaques (psoriasis plaques; 0.1% and 0.05% preparations, initial pilot study): only a modest effect
- effect on the action of UVA (psoriasis plaques; 0.1% and 0.05% preparations, psoriasis plaques): potentiating effect
- results in the open series (psoriasis plaques; 1% preparation, daily, open application, 6 cases): only one very good result was noted, with one good and four modest results
- regression of the lesion score (psoriasis plaques; 1% preparation, daily, 3 of the 5 cases, from the first week): more than 50%
- regression of the lesion score (psoriasis plaques; 1% preparation, daily, one case (good result)): 30%
- regression of the lesion score (psoriasis plaques; 1% preparation, daily, one case (modest result)): 10%
- local reaction on the psoriasis plaque (psoriasis plaques; in vivo): inflammation specifically localized on the psoriasis plaque
- oxidation of retinal [4]: 51.6 pmol/h/mg
- subjects left with almost no characteristic signs of seborrheic dermatitis (seborrheic dermatitis): 80%
- subjects left with almost no sign of characteristic erythrosis of rosacea (rosacea; after treatment for 3 months): 70%
- cases with a substantial improvement in the rosacea (rosacea; from the first month, 10 subjects): 6 of the 10

SMILES: CC1=C(/C=C/C(C)=C/C=C/C(C)=C/C(=O)O)C(C)(C)CCC1 [retinoic acid]
- topical concentration at which dermatitis caused by the retinoids is observed (normal human skin [5]): ≥ 0.01%

SMILES: CC1=C(/C=C/C(C)=C/C=C/C(C)=C/CO)C(C)(C)CCC1 [retinol]
- activity of converting retinol to retinoic acid [6]: 0.33+0.07 pmol/h/mg
- conversion of retinol to retinoic acid [6]: no measurable degree of conversion
